In ChEMBL document CHEMBL3044981, “Production and optimization of oxytetracycline by a new isolate Streptomyces rimosus using response surface methodology” (2012):
Values after ≈ are worked out from the molar mass of the structure shown.

Key:
Format in all cases: functional
Pseudomonas aeruginosa = test: Antibacterial activity against multidrug-resistant Pseudomonas aeruginosa by broth dilution method
Escherichia coli = test: Antibacterial activity against multidrug-resistant Escherichia coli MTCC 1667 by broth dilution method
Proteus vulgaris = test: Antibacterial activity against multidrug-resistant Proteus vulgaris MTCC 1771 by broth dilution method
[1] = test system: Staphylococcus epidermidis; test: Antibacterial activity against multidrug-resistant Staphylococcus epidermidis MTCC 435 by broth dilution method
Klebsiella pneumoniae = test: Antibacterial activity against multidrug-resistant Klebsiella pneumoniae MTCC 2405 by broth dilution method
Salmonella typhi = test: Antibacterial activity against multidrug-resistant Salmonella enterica subsp. enterica serovar Typhi MTCC 734 by broth dilution method
Staphylococcus aureus = test: Antibacterial activity against multidrug-resistant Staphylococcus aureus MTCC 737 by broth dilution method

CN(C)[C@@H]1C(O)=C(C(N)=O)C(=O)[C@@]2(O)C(O)=C3C(=O)c4c(O)cccc4[C@@](C)(O)[C@H]3[C@H](O)[C@@H]12 [OXYTETRACYCLINE]
MIC (Pseudomonas aeruginosa): 12.5 µg/mL (≈ 27.1 µM)
MIC (Escherichia coli): 6.25 µg/mL (≈ 13.6 µM)
MIC (Proteus vulgaris): 12.5 µg/mL (≈ 27.1 µM)
MIC [1]: 3 µg/mL (≈ 6.52 µM)
MIC (Klebsiella pneumoniae): 12.5 µg/mL (≈ 27.1 µM)
MIC (Salmonella typhi): 3 µg/mL (≈ 6.52 µM)
MIC (Staphylococcus aureus): 3 µg/mL (≈ 6.52 µM)
